Data: ChEMBL document CHEMBL1201862, “PubChem BioAssay data set” (2004)
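Five compound concentrations were applied to cells in 96-well plates for 48 hours; endpoints were derived by simple linear interpolation of the resulting dose-response curve. GI50 is the concentration that inhibits growth by half.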 Activity calls are given as the source filed them. Rule as the data show it: active = GI50 up to about 1.1 µM and inactive = higher.

Experiments:
Test in all cases: DTP human tumour cell line panel, 48 h
HL-60 = tested on: HL-60
HCC 2998 = tested on: HCC 2998
OVCAR-5 = tested on: OVCAR-5
IGROV-1 = tested on: IGROV-1
HCT-15 = tested on: HCT-15
SK-OV-3 = tested on: SK-OV-3
786-0 = tested on: 786-0
OVCAR-4 = tested on: OVCAR-4
Malme-3M = tested on: Malme-3M
UACC-62 = tested on: UACC-62
MOLT-4 = tested on: MOLT-4
LOX IMVI = tested on: LOX IMVI
NCI/ADR-RES = tested on: NCI/ADR-RES
ACHN = tested on: ACHN
SF-539 = tested on: SF-539
RXF 393 = tested on: RXF 393
MCF7 = tested on: MCF7
SK-MEL-5 = tested on: SK-MEL-5
MDA-MB-231 = tested on: MDA-MB-231
M14 = tested on: M14

| SMILES | GI50 (HL-60) | GI50 (HCC 2998) | GI50 (OVCAR-5) | GI50 (IGROV-1) | GI50 (HCT-15) | GI50 (SK-OV-3) | GI50 (786-0) | GI50 (OVCAR-4) | GI50 (Malme-3M) | GI50 (UACC-62) | GI50 (MOLT-4) | GI50 (LOX IMVI) | GI50 (NCI/ADR-RES) | GI50 (ACHN) | GI50 (SF-539) | GI50 (RXF 393) | GI50 (MCF7) | GI50 (SK-MEL-5) | GI50 (MDA-MB-231) | GI50 (M14) |
| --- | --- | --- | --- | --- | --- | --- | --- | --- | --- | --- | --- | --- | --- | --- | --- | --- | --- | --- | --- | --- |
| CC1=C(C)C(=O)C(C2=C(C3=CC(=O)C(C)=C(C)C3=O)C(=O)C(C)=C(C)C2=O)=CC1=O | > 100 µM (inactive) | 15.2 µM (inactive) | 7.85 µM (inactive) | 10.9 µM (inactive) | 0.294 µM | 17.4 µM (inactive) | 5.06 µM (inactive) | 1.79 µM (inactive) | 3.1 µM (inactive) | 10.5 µM (inactive) | 0.697 µM (active) | 2.57 µM (inactive) | 1.13 µM (inactive) | 5.79 µM (inactive) | 2.17 µM (inactive) | 1.83 µM (inactive) | 2.67 µM (inactive) | 2.15 µM (inactive) | 2.07 µM (inactive) | 10 µM (inactive) |
| CC1=C(C(=O)Nc2ccccc2)C(c2ccc(N(C)C)cc2)C(C(=O)Nc2ccccc2)=C(C)N1 | 5.3 µM (inactive) | 2.86 µM (inactive) | 18.6 µM (inactive) | 16.9 µM (inactive) | 0.493 µM | 59.2 µM (inactive) | 29.6 µM (inactive) | 50.8 µM (inactive) | 4.79 µM (inactive) | 0.2 µM (active) | 2.89 µM (inactive) | 2.82 µM (inactive) | > 100 µM (inactive) | 0.494 µM (active) | 9.59 µM (inactive) | > 85.1 µM (inactive) | 10.3 µM (inactive) | 1.1 µM (active) | 29.1 µM (inactive) | 1.5 µM (inactive) |
| Cc1ccc(S(=O)(=O)Nn2c(S)c(C#N)c(-c3ccc(N(C)C)cc3)c(C#N)c2=O)cc1 | 20.7 µM (inactive) | 38.2 µM (inactive) | 35 µM (inactive) | 10.8 µM (inactive) | 20.3 µM | 48.8 µM (inactive) | 28.6 µM (inactive) | 17.1 µM (inactive) | 18.7 µM (inactive) | 25.7 µM (inactive) | 23.4 µM (inactive) | 22.1 µM (inactive) | 32 µM (inactive) | 20.6 µM (inactive) | 19 µM (inactive) | 19.3 µM (inactive) | 30.8 µM (inactive) | 17.7 µM (inactive) | > 100 µM (inactive) | 31.2 µM (inactive) |
| CC(C)C[C@H](NC(=O)[C@@H](Cc1cccc2ccccc12)NC(=O)N1CCOCC1)B(O)O | 2.77 µM (inactive) | 2.01 µM (inactive) | 3.19 µM (inactive) | 5.06 µM (inactive) | 21.9 µM | 6.85 µM (inactive) | 4.79 µM (inactive) | 4.72 µM (inactive) | 1.58 µM (inactive) | 4.02 µM (inactive) | 3.2 µM (inactive) | 2.36 µM (inactive) | 51.4 µM (inactive) | 9.25 µM (inactive) | 2.04 µM (inactive) | 2.4 µM (inactive) | 5.43 µM (inactive) | 3.13 µM (inactive) | 4.48 µM (inactive) | 3.11 µM (inactive) |
| O=C(O)C(Oc1nc(S)nc(S)n1)(c1ccc(Cl)cc1)c1ccc(Cl)cc1 | > 100 µM (inactive) | 92.7 µM (inactive) | > 100 µM (inactive) | > 100 µM (inactive) | > 100 µM | > 100 µM (inactive) | > 100 µM (inactive) | > 100 µM (inactive) | > 100 µM (inactive) | > 100 µM (inactive) | > 100 µM (inactive) | > 100 µM (inactive) | > 100 µM (inactive) | > 100 µM (inactive) | > 100 µM (inactive) | > 100 µM (inactive) | > 100 µM (inactive) | > 100 µM (inactive) | > 100 µM (inactive) | > 100 µM (inactive) |
| O=C(c1ccccc1F)c1c(NCc2ccccc2)c(=O)c1=O | > 100 µM (inactive) | > 100 µM (inactive) | > 100 µM (inactive) | 55.7 µM (inactive) | > 100 µM | > 100 µM (inactive) | > 100 µM (inactive) | > 100 µM (inactive) | > 100 µM (inactive) | > 100 µM (inactive) | > 100 µM (inactive) | > 100 µM (inactive) | > 100 µM (inactive) | > 100 µM (inactive) | > 100 µM (inactive) | > 100 µM (inactive) | > 100 µM (inactive) | > 100 µM (inactive) | > 100 µM (inactive) | > 100 µM (inactive) |
| COc1ccc(C2Oc3ccc(Cl)cc3C=C2[N+](=O)[O-])cc1OC (stereo not given) | 0.204 µM (active) | 1.77 µM (inactive) | 1.5 µM (inactive) | 1.56 µM (inactive) | 1.47 µM | 2.3 µM (inactive) | 0.388 µM (active) | 1.93 µM (inactive) | 1.75 µM (inactive) | 1.5 µM (inactive) | 0.216 µM (active) | 0.32 µM (active) | 0.456 µM (active) | 1.43 µM (inactive) | 1.55 µM (inactive) | 1.59 µM (inactive) | 0.776 µM (active) | 1.53 µM (inactive) | 1.27 µM (inactive) | 0.231 µM (active) |
